{"source": "patent US20140051631A1", "about": "“PHARMACEUTICAL COMPOSITION COMPRISING TPO OR AN AGONIST OF THE TPO RECEPTOR” (priority 2012, published 2014)", "molecules": {"B1": {"name": "Flt3-ligand: recombinant cytokine of the culture medium (100 ng/ml) (protein, UniProt P49771 27-235, looked up)", "Fms-related tyrosine kinase 3 …": "TQDCSFQHSPISSDFAVKIRELSDYLLQDYPVTVASNLQDEELCGGLWRLVLAQRWMERLKTVAGSKMQGLLERVNTEIHFVTKCAFQPPPSCLRFVQTNISRLLQETSEQLVALKPWITRQNFSRCLELQCQPDSSTLPPPWSPRPLEATAPTAPQPPLLLLLLLPVGLLLLAAAWCLHWQRTRRRTPRPGEQVPPVPSPQDLLLVEH"}}, "key": {"DNA-PK": {"molecular_target": "T1, DNA-PK (Mus musculus, UniProt P97313)", "T1 construct": "LSK and LSK-CD34^− cells were sorted using ARIAS cell sorter; endogenous in cells; host or cells: primary mouse bone-marrow LSK-CD34- cells", "assay": "γH2AX foci resolution in LSK-CD34− cultures with DNA-PK inhibitor", "format": "cell-based, mice", "conditions": "10 μm NU7441 in TPO-containing cultures of LSK-CD34− cells, IR 2 Gy, 24 h", "from_the_text": "(§1) Mpl^−/− backcrossed on C57BL/6 (CD45.2) background (kindly provided by Dr F. de Sauvage) were described previously (Petit-Cocault et al., 2007). C57BL/6J (CD45.2 and CD45.1) and CB17-Prkdc-scid mice were purchased from Charles River and Harlan laboratories, respectively. Unless otherwise specified, mice of 8-10 weeks of age were used. Lin^− progenitors were isolated from BM and stained as described (Saulnier et al., 2012). LSK and LSK-CD34^− cells were sorted using ARIAS cell sorter (BD Franklin Lakes, N.J., USA) and cultured in StemSpan SFEM (StemCell Technologies) supplemented with recombinant Flt3-Ligand (100 ng/ml), interleukin-3 (IL-3, 10 ng/ml), interleukin-6 (IL-6, 10 ng/ml), Stem cell factor (SCF, 100 ng/ml), and with or without 50 ng/ml TPO (complete medium), all from Peprotech (Rocky Hill, N.J., USA). […] For competitive reconstitution experiments, 3000 LSKs sorted from C57BL/6 CD45.1 mice subjected or not to TBI (2 Gy) and TPO injection (8 μg/kg body weight), were injected in lethally irradiated (10 Gy) C57BL/6 CD45.2 congenic mice, together with 3×10^5 BM CD45.2 competitor cells and analyzed 4 months later.\n(§2) Immunofluorescence was performed as described (Pawlikowska et al., 2010) with cells cytospun on glass slides. […] Pictures were analyzed using ImageJ software."}, "LSKs [1]": {"tested_on": "LSKs", "assay": "γH2AX foci / DNA break disappearance after IR in vitro in cytokine cultures", "format": "cell-based, mice", "conditions": "removal of the cytokine from culture medium", "from_the_text": "as §1, §2"}, "LSKs [2]": {"tested_on": "LSKs", "assay": "γH2AX foci in LSKs of mice after TBI or chemotherapeutic drug injection", "format": "in vivo", "conditions": "WT mice, vs PBS", "from_the_text": "(§3) Mpl^−/− backcrossed on C57BL/6 (CD45.2) background (kindly provided by Dr F. de Sauvage) were described previously (Petit-Cocault et al., 2007). C57BL/6J (CD45.2 and CD45.1) and CB17-Prkdc-scid mice were purchased from Charles River and Harlan laboratories, respectively. Unless otherwise specified, mice of 8-10 weeks of age were used. Lin^− progenitors were isolated from BM and stained as described (Saulnier et al., 2012). LSK and LSK-CD34^− cells were sorted using ARIAS cell sorter (BD Franklin Lakes, N.J., USA) and cultured in StemSpan SFEM (StemCell Technologies) supplemented with recombinant Flt3-Ligand (100 ng/ml), interleukin-3 (IL-3, 10 ng/ml), interleukin-6 (IL-6, 10 ng/ml), Stem cell factor (SCF, 100 ng/ml), and with or without 50 ng/ml TPO (complete medium), all from Peprotech (Rocky Hill, N.J., USA). UT7-Mpl cells (Hamelin et al., 2006) were cultured in α-minimal essential medium (α-MEM) supplemented with 10% FCS and 2 U/ml erythropoietin (EPO, Boehringer Ingelheim). Cell IR in vitro were carried-out in a Biobeam 8000 irradiator (Gamma Service Medical GmbH, Leipzig, Germany). Mice TBI were performed in cesium irradiator IBL 637 (Curie Institute, Paris). Etoposide and doxorubicine were purchased from sigma (Saint-Louis, Mo., USA), drugs were injected intraperitoneally at the indicated doses. For competitive reconstitution experiments, 3000 LSKs sorted from C57BL/6 CD45.1 mice subjected or not to TBI (2 Gy) and TPO injection (8 μg/kg body weight), were injected in lethally irradiated (10 Gy) C57BL/6 CD45.2 congenic mice, together with 3×10^5 BM CD45.2 competitor cells and analyzed 4 months later.\n(§4) Immunofluorescence was performed as described (Pawlikowska et al., 2010) with cells cytospun on glass slides. Slides were visualized with Leica DMI 6000 (Wetzlar, Germany) microscope equipped with a 63×1.6 oil-immersion objective and a coupled device camera MicroMAX (Princeton Instruments Trenton, N.J., USA). Pictures were analyzed using ImageJ software."}, "LSKs from SCID mice": {"tested_on": "LSKs from SCID mice", "assay": "γH2AX foci in LSKs from SCID mice after TBI", "format": "in vivo", "conditions": "SCID mice (DNA-PKcs mutation), TPO 8 μg/kg, TBI 2 Gy, 16 h", "from_the_text": "as §1, §2"}, "LSK and LSK-CD34^− cells [3]": {"tested_on": "LSK and LSK-CD34^− cells", "assay": "LSK and LSK-CD34− proportions, cell cycle status and cell cycle regulators 5 h after TBI", "format": "in vivo, mice", "from_the_text": "as §3"}, "LSK and LSK-CD34^− cells [4]": {"tested_on": "LSK and LSK-CD34^− cells", "assay": "Persistent DNA damage (γH2AX) in LSK and LSK-CD34− cells 3 months after TBI", "format": "in vivo, mice", "conditions": "TPO prior to TBI, analyzed 3 months later", "from_the_text": "as §1, §2"}, "Lin^− progenitors": {"tested_on": "Lin^− progenitors", "assay": "Chromosomal aberrations in metaphases from Lin− progenitors after TBI in vivo", "design": "species or system mice", "procedure": "Fluorescence was analyzed with a Zeiss Axioplan epifluorescent microscope and ISIS/M-FISH imaging system (MetaSystems)."}, "LSKs [5]": {"tested_on": "LSKs", "assay": "Competitive reconstitution with LSKs from irradiated donor mice", "format": "in vivo", "from_the_text": "as §1, with “USA). UT7-Mpl cells (Hamelin et al., 2006) were cultured in α-minimal essential medium (α-MEM) supplemented with 10% FCS and 2 U/ml erythropoietin (EPO, Boehringer Ingelheim).” for “USA).”"}, "WT HSPCs": {"tested_on": "WT HSPCs", "assay": "Chromosomal rearrangements in HSPCs irradiated in vitro", "format": "cell-based, mice", "conditions": "WT HSPCs irradiated in vitro (2 Gy), cultured in the absence of TPO", "from_the_text": "as §1\nChromosomal aberration analysis in metaphase spreads were performed as described previously (Pawlikowska et al., 2010). […] Fluorescence was analyzed with a Zeiss Axioplan epifluorescent microscope and ISIS/M-FISH imaging system (MetaSystems)."}, "UT7-Mpl cells": {"tested_on": "UT7-Mpl cells", "assay": "DNA damage and p-DNA-PK foci in UT7-Mpl cells after IR", "format": "cell-based, human", "from_the_text": "as §3, §4"}, "Rad51 foci": {"tested_on": "Rad51 foci", "assay": "Homologous recombination markers: Rad51 foci and repair of replicative-stress DSBs", "format": "cell-based"}, "[6]": {"conditions": "in the absence of TPO, compared to TPO-treated cells, IR 2 Gy"}}}
{"molecule": "O=c1cc(N2CCOCC2)oc2c(-c3cccc4c3sc3ccccc34)cccc12", "note": "[NU7441]", "values": [{"measurement": "TPO-improved γH2AX foci resolution", "setting": "DNA-PK", "value": "completely abolished"}]}
{"molecule": "Stem cell factor [SCF, reference compound]", "values": [{"measurement": "kinetics of IR-induced γH2AX foci or DNA break disappearance", "setting": "LSKs [1]", "value": "did not impair"}]}
{"molecule": "Thrombopoietin [TPO]", "values": [{"measurement": "number of LSKs displaying γH2AX foci", "setting": "LSKs [2]; TPO 8 μg/kg injected just before 2 Gy TBI, at 5 h", "value": "reduced significantly"}, {"measurement": "number of LSKs displaying γH2AX foci", "setting": "LSKs [2]; TPO injected just before doxorubicine (3 or 10 mg/kg), at 24 h", "value": "reduced significantly"}, {"measurement": "number of LSKs displaying γH2AX foci", "setting": "LSKs [2]; TPO injected just before etoposide (4 mg/kg), at 24 h", "value": "reduced significantly"}, {"measurement": "TBI-induced LSK γH2AX foci formation", "setting": "LSKs from SCID mice", "value": "did not decrease"}, {"measurement": "proportions of LSK and LSK-CD34− cells recovered from BM", "setting": "LSK and LSK-CD34^− cells [3]; 5 h after TBI, PBS vs TPO-treated mice", "value": "not significantly different"}, {"measurement": "cell cycle status of LSK or LSK-CD34− cells", "setting": "LSK and LSK-CD34^− cells [3]; TPO treatment pre-TBI, compared to PBS", "value": "did not alter"}, {"measurement": "expression of cell cycle regulators p57kip2 and p27Kip1", "setting": "LSK and LSK-CD34^− cells [3]; after TPO injection and TBI", "value": "remained unchanged"}, {"measurement": "number and cycle of HSCs and HSPCs", "setting": "LSK and LSK-CD34^− cells [4]", "value": "no effect"}, {"measurement": "persistent DNA damage (γH2AX foci) in HSCs and HSPCs", "setting": "LSK and LSK-CD34^− cells [4]", "value": "almost completely abolished"}, {"measurement": "chromosomal aberrations in metaphases from progenitor cells", "setting": "Lin^− progenitors; 3 months from TBI, TPO-injected mice", "value": "greatly reduced"}, {"measurement": "genomic instability (genomic rearrangements) transmitted to progenitor progeny of LSKs", "setting": "Lin^− progenitors; 4 months after reconstitution of lethally irradiated recipients, TPO injection before TBI", "value": "significantly reduced"}, {"measurement": "increase in donor CD45.1 chimerism in the peripheral blood and in BM LSK cells", "setting": "LSKs [5]; 4 months after transplantation, TPO vs PBS before TBI", "value": "3- to 5 fold"}, {"measurement": "donor chimerism, difference between the TPO and PBS groups", "setting": "LSKs [5]; 6 weeks posttransplantation", "value": "No difference"}, {"measurement": "chromosomal rearrangements", "setting": "WT HSPCs", "value": "high numbers"}, {"measurement": "TPO action on IR-induced DNA damage in human cell line", "setting": "UT7-Mpl cells; UT7-Mpl grown with EPO or TPO", "value": "could also act"}, {"measurement": "number of UT7-Mpl cells showing IR-induced pSer2056- and pT2609-DNA-PK foci", "setting": "UT7-Mpl cells; [6]", "value": "significantly decreased"}, {"measurement": "p-DNA-PK foci number in positively stained cells", "setting": "UT7-Mpl cells; [6]", "value": "greatly reduced"}, {"measurement": "total DNA-PK signal", "setting": "UT7-Mpl cells; upon IR or TPO treatment", "value": "did not change"}, {"measurement": "repair of DSBs induced by replicative stresses", "setting": "Rad51 foci; camptotecin and hydroxyurea", "value": "could not improve"}, {"measurement": "IR-induced Rad51 foci formation", "setting": "Rad51 foci; functional marker of HR", "value": "did not increase"}]}
{"molecule": "B1", "values": [{"measurement": "kinetics of IR-induced γH2AX foci or DNA break disappearance", "setting": "LSKs [1]", "value": "did not impair"}]}
